Assay results from PubChem BioAssay (NCI).
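Method: 48-hour compound exposure of cells in 96-well plates, five concentrations, linear interpolation of endpoints. GI50 marks 50% less growth. At the TGI there is no net growth.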

Key:
Experiment in all cases: NCI tumour cell line growth inhibition, 48 h
[1] = tested on: MALME-3M melanoma
[2] = tested on: SN12C renal
[3] = tested on: 786-0 renal
[4] = tested on: OVCAR-3 ovarian
[5] = tested on: HCC-2998 colon
[6] = tested on: SNB-19 CNS
[7] = tested on: MOLT-4 leukemia
[8] = tested on: HL-60(TB) leukemia
[9] = tested on: NCI-H23 lung
[10] = tested on: OVCAR-4 ovarian
[11] = tested on: MCF7 breast
[12] = tested on: SK-MEL-28 melanoma
[13] = tested on: TK-10 renal
[14] = tested on: SK-OV-3 ovarian
[15] = tested on: SK-MEL-5 melanoma
[16] = tested on: NCI/ADR-RES ovarian
[17] = tested on: MDA-MB-435
[18] = tested on: IGROV1 ovarian
[19] = tested on: CAKI-1 renal
[20] = tested on: K-562 leukemia
[21] = tested on: HS 578T breast
[22] = tested on: UACC-257 melanoma
[23] = tested on: NCI-H522 lung
[24] = tested on: NCI-H226 lung
[25] = tested on: MDA-MB-468 breast
[26] = tested on: T-47D breast
[27] = tested on: SF-295 CNS
[28] = tested on: U251 CNS
[29] = tested on: SF-268 CNS
[30] = tested on: HOP-92 NSCLC
[31] = tested on: SW-620 colon
[32] = tested on: SK-MEL-2 melanoma
[33] = tested on: SNB-75 CNS
[34] = tested on: SR leukemia
[35] = tested on: HCT-15 colon
[36] = tested on: MDA-MB-231 breast
[37] = tested on: CCRF-CEM leukemia
[38] = tested on: OVCAR-8 ovarian
[39] = tested on: OVCAR-5 ovarian
[40] = tested on: NCI-H460 lung
[41] = tested on: KM12 colon
[42] = tested on: ACHN renal
[43] = tested on: BT-549 breast
[44] = tested on: RPMI-8226 leukemia
[45] = tested on: A549 NSCLC
[46] = tested on: M14 melanoma
[47] = tested on: RXF 393 renal
[48] = tested on: PC-3 prostate
[49] = tested on: UO-31 renal
[50] = tested on: COLO 205 colon
[51] = tested on: LOX IMVI melanoma
[52] = tested on: HCT-116 colon
[53] = tested on: DU-145 prostate
[54] = tested on: EKVX NSCLC
[55] = tested on: HOP-62 NSCLC
[56] = tested on: UACC-62 melanoma
[57] = tested on: A498 renal
[58] = tested on: SF-539 CNS
[59] = tested on: HT29 colon

In the case of `CN(C)c1ccc(/C=C/c2n(Cc3ccc4ccccc4c3)c3ccccc3[n+]2Cc2ccc3ccccc3c2)cc1`, the GI50 [1] is reported as 0.249 µM, the TGI [1] is reported as 0.74 µM and the GI50 [2] is reported as 0.286 µM. It also gave a TGI [2] of 1.07 µM, a GI50 [3] of 0.287 µM and a TGI [3] of 1.44 µM. The GI50 [4] was 0.267 µM, the TGI [4] was 1.25 µM and the GI50 [5] was 0.325 µM. The TGI [5] was 1.33 µM, the GI50 [6] was 0.296 µM and the TGI [6] was 1.19 µM. For the same compound, the GI50 [7] was 0.303 µM, the TGI [7] was 1.66 µM and the GI50 [8] was 0.228 µM. It also gave a TGI [8] of 0.795 µM, a GI50 [9] of 0.25 µM and a TGI [9] of 0.752 µM. For the same compound, the GI50 [10] was 0.342 µM, the TGI [10] was 1.65 µM and the GI50 [11] was 0.281 µM. The TGI [11] was 1.1 µM, the GI50 [12] was 0.491 µM and the TGI [12] was 1.71 µM. The GI50 [13] was 0.416 µM, the TGI [13] was 1.68 µM and the GI50 [14] was 0.28 µM. For the same compound, the TGI [14] was 1.09 µM, the GI50 [15] was 0.181 µM and the TGI [15] was 0.346 µM. For the same compound, the GI50 [16] was 1.32 µM, the TGI [16] was 3.46 µM and the GI50 [17] was 0.338 µM. The TGI [17] was 1.24 µM, the GI50 [18] was 0.382 µM and the TGI [18] was 1.53 µM. For the same compound, the GI50 [19] was 0.331 µM, the TGI [19] was 1.31 µM and the GI50 [20] was 0.228 µM. The TGI [20] was > 22.9 µM, the GI50 [21] was 0.27 µM and the TGI [21] was 1.42 µM. It also gave a GI50 [22] of 0.265 µM, a TGI [22] of 0.919 µM and a GI50 [23] of 0.246 µM. It also gave a TGI [23] of 0.737 µM, a GI50 [24] of 0.257 µM and a TGI [24] of 1.01 µM. It also gave a GI50 [25] of 0.165 µM, a TGI [25] of 0.731 µM and a GI50 [26] of 0.294 µM. For the same compound, the TGI [26] was 1.5 µM, the GI50 [27] was 0.266 µM and the TGI [27] was 0.996 µM. The GI50 [28] was 0.166 µM, the TGI [28] was 1.27 µM and the GI50 [29] was 0.383 µM. The TGI [29] was 1.63 µM, the GI50 [30] was 0.162 µM and the TGI [30] was 0.6 µM. For the same compound, the GI50 [31] was 0.319 µM, the TGI [31] was 1.31 µM and the GI50 [32] was 0.271 µM. The TGI [32] was 0.77 µM, the GI50 [33] was 0.24 µM and the TGI [33] was 1.14 µM. The GI50 [34] was 0.399 µM, the TGI [34] was 2.3 µM and the GI50 [35] was 0.458 µM. It also gave a TGI [35] of 1.74 µM, a GI50 [36] of 0.292 µM and a TGI [36] of 0.998 µM. It also gave a GI50 [37] of 0.315 µM, a TGI [37] of 1.41 µM and a GI50 [38] of 0.312 µM. The TGI [38] was 1.35 µM, the GI50 [39] was 0.36 µM and the TGI [39] was 1.41 µM. It also gave a GI50 [40] of 0.26 µM, a TGI [40] of 1.13 µM and a GI50 [41] of 0.315 µM. It also gave a TGI [41] of 1.3 µM, a GI50 [42] of 0.326 µM and a TGI [42] of 1.21 µM. It also gave a GI50 [43] of 0.187 µM, a TGI [43] of 0.809 µM and a GI50 [44] of 0.237 µM. It also gave a TGI [44] of 1.13 µM, a GI50 [45] of 0.317 µM and a TGI [45] of 1.52 µM. It also gave a GI50 [46] of 0.369 µM, a TGI [46] of 1.53 µM and a GI50 [47] of 0.231 µM. It also gave a TGI [47] of 1.02 µM, a GI50 [48] of 0.25 µM and a TGI [48] of 1.25 µM. The GI50 [49] was 0.53 µM, the TGI [49] was 1.84 µM and the GI50 [50] was 0.211 µM. The TGI [50] was 0.434 µM, the GI50 [51] was 0.269 µM and the TGI [51] was 0.999 µM. It also gave a GI50 [52] of 0.218 µM, a TGI [52] of 1.3 µM and a GI50 [53] of 0.354 µM. The TGI [53] was 1.42 µM, the GI50 [54] was 0.252 µM and the TGI [54] was 0.905 µM. The GI50 [55] was 0.351 µM, the TGI [55] was 1.41 µM and the GI50 [56] was 0.281 µM. For the same compound, the TGI [56] was 1.02 µM, the GI50 [57] was 0.269 µM and the TGI [57] was 1.15 µM. For the same compound, the GI50 [58] was 0.346 µM, the TGI [58] was 1.33 µM and the GI50 [59] was 0.235 µM. The TGI [59] was 1.34 µM.
